Reference: paper PMC3863390 (Molecular nutrition & food research, 2012)
Values joined by “and” are separate entries in the source; they are usually repeats but may differ in a detail not shown here. Equal values may be shown once.

Experiments:
[1] = tested on: human bladder cancer cell lines (HBCCs); type: cell-based; details: p>0.8, data not shown
RT4 cells [2] = assay: SRB cell viability assay in RT4 cells; type: cell-based, human; details: for RT4 cell viability inhibition: 20 μM, 48 hr
UMUC3 cells = assay: cells; type: cell-based; details: Homo sapiens, UMUC3, 48 h, read-out: IC50, cell viability
survivin [3] = details: RT4; 20 μM, 48 hr
PARP [4] = assay: Western blot of PARP cleavage, RT4; type: cell-based, human; details: 20 μM, 48 hr
EGFR [5] = assay: Western blot of EGFR expression, RT4; type: cell-based, human; details: 20 μM, 48 hr
[6] = tested on: Normal human bladder urothelial cells (NHU); assay: tissue or blood; type: cell-based
survivin [7] = assay: Western blot of survivin expression, UMUC3; type: cell-based, human; details: 20 μM, 48 hr
J82 cells [8] = assay: SRB cell viability assay in J82 cells; type: cell-based; details: Homo sapiens, J82, 48 h, read-out: IC50, cell viability
J82 cells [9] = assay: Cell cycle analysis by flow cytometry, J82; type: cell-based, human; details: 20 μM, 48 hr
UMUC3 xenograft = UMUC3 xenograft in athymic nude mice; type: in vivo, mouse; details: 295 μmol/kg/day oral gavage, 2 weeks
caspase 3/7 = assay: Apo-ONE caspase-3/7 assay, RT4; type: cell-based, human; details: 10 μM, 48 hr
HER2/neu [10] = assay: Western blot of HER2/neu expression, UMUC3; type: cell-based, human; details: 20 μM, 48 hr
EGFR [11] = assay: Western blot of EGFR expression, UMUC3; type: cell-based, human; details: 20 μM, 48 hr
PARP [12] = assay: Western blot of PARP cleavage, UMUC3; type: cell-based, human; details: 20 μM, 48 hr
RT4 cells [13] = assay: Cell cycle analysis by flow cytometry, RT4; type: cell-based, human; details: 20 μM, 48 hr
HER2/neu [14] = assay: Western blot of HER2/neu expression, RT4; type: cell-based, human; details: 20 μM, 48 hr

Structure (SMILES): C[S+]([O-])CCCCN=C=S (centres unmarked) [R-sulforaphane]
- difference between isomers in inhibitory effects of HBCCs [1]: no difference

Structure (SMILES): C[S@+]([O-])CCCCN=C=S [S-sulforaphane]
- difference between isomers in inhibitory effects of HBCCs [1]: no difference

Structure (SMILES): C=CCN=C=S [allyl isothiocyanate]
- RT4 cell viability inhibition (RT4 cells [2]): 28%

Structure (SMILES): C[S+]([O-])CCCN=C=S (centres unmarked) [iberin]
- RT4 cell viability inhibition (RT4 cells [2]): 12%

Structure (SMILES): C[S+]([O-])CCCCN=C=S (centres unmarked) [sulforaphane]
- IC50 (UMUC3 cells): 5.66 ± 1.2 µM
- decrease in survivin expression (survivin [3]): 51% and 44%
- PARP cleavage increase (PARP [4]): 2.3 fold
- changes in EGFR expression (EGFR [5]): does not lead to significant changes
- inhibition at 20 µM ([6]; Homo sapiens, 72 h, read-out: inhibition of NHU): 62%
- IC50, cell viability ([6]; NHU cells, 72 hr): not reached
- survivin expression downregulated (survivin [7]): 35%
- RT4 cell viability inhibition (RT4 cells [2]): 64%
- IC50 (RT4 cells [2]; Homo sapiens, RT-4, 48 h, read-out: IC50, cell viability): 11.2 ± 0.3 µM
- IC50 (J82 cells [8]): 7.7 ± 1.8 µM
- increase of cells in the G2/M phase (J82 cells [9]): 3 fold
- inhibition of tumor growth rate (UMUC3 xenograft): 42%
- decrease in final tumor weight (UMUC3 xenograft; versus vehicle control soy bean oil): 33%
- increase in caspase 3/7 activity compared to control (caspase 3/7): 2.5 fold
- HER2/neu downregulated (HER2/neu [10]): 90%
- EGFR protein expression downregulated (EGFR [11]): 54%
- PARP cleavage increase (PARP [12]): 3.6 fold
- increase of cells in the G2/M phase compared to control (RT4 cells [13]): 2.6 fold
- decrease of HER2/neu expression (HER2/neu [14]): 10%
